pIC50: −log10 of the molar value.
Columns and labels:
[1] = antioxidant test: quenching of the stable free radical DPPH; conditions: 5 μM test compound, 500 μM DPPH, absorbance 517 nm; FIG. 1B
Method: The rate of reaction is proportional to the antioxidant potency of the test compounds. A known free radical scavenger, nordihydroguaiaretic acid (NDGA), was used as a positive control. 10 μL, of 1 mM testing reagents to achieve final concentrations of 5 μM were added to 2 mL of 500 μM DPPH stirring in a cuvette.

[2] = target: T1, 15-hLOX-1 (Homo sapiens, UniProt P16050); conditions: natural products known to inhibit 15-hLOX-1; read-out: IC50 against 15-hLOX-1; cited from earlier work
T1 sequence (P16050 1-662): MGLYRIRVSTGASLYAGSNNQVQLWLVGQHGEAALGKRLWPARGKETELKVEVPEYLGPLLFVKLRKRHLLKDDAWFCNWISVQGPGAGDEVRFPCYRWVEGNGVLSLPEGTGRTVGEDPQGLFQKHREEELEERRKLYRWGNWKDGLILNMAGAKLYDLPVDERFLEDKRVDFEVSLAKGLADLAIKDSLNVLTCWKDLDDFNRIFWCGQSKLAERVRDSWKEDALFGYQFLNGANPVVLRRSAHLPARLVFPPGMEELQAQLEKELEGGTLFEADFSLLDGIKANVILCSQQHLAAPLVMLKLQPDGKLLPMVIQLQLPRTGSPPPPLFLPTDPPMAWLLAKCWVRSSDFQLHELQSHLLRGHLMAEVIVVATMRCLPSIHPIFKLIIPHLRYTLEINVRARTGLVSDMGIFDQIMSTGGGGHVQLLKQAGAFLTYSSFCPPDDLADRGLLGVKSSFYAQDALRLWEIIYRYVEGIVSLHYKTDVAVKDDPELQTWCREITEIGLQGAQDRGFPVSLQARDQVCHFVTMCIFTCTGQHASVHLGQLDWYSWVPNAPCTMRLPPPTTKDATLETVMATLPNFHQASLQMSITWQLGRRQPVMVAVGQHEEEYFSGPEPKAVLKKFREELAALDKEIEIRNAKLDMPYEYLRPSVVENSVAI

SMILES | antioxidant activity (quenching of DPPH radical) [1] | pIC50 [2]
CC(Cc1ccc(O)c(O)c1)C(C)Cc1ccc(O)c(O)c1 (centres unmarked) [NDGA, nordihydroguaiaretic acid] | rapid quenching | –
C[C@H]1[C@H](C)CC[C@]2(C)CC[C@]3(C)C(=CC[C@@H]4[C@@]5(C)CC[C@@H](O)[C@](C)(C(=O)O)[C@@H]5CC[C@]43C)[C@H]12 [boswellic acid] | – | 6.00

Source: patent US20120053220A1, “NOVEL LIPOXYGENASE INHIBITORS AS NEUROPROTECTIVE AGENTS” (The General Hospital Corporation d/b/a Massachusetts …, priority 2007, published 2012)
